This series is described as follows: Human HepG2 cell viability assay in 384 well format. It counts as toxicity, cell-based. More on the design: dose 125 nL, time 70.5 hour; concentration not given beside the values. The note with it: HepG2 cells, read-out: Inhibition.

Drawing on ChEMBL document CHEMBL3507680, “University of Dundee, Gates Library screen for HepG2 cell viability”, this text covers cytotoxicity for 99 compounds.

As for `CN(C)C(=O)CCC1CCCN(Cc2ccc(-c3cccnc3)cc2)C1` (centres undefined), the cytotoxicity at 70.5 h was -10.4%. Regarding `O=C(Nc1cccc2c1CCCC2)c1cccc(CN2CC[C@H](O)C2)c1`, the cytotoxicity at 70.5 h was -4.36%. As to `OC1(CN2CCCC2)CCCN(Cc2c[nH]c(CC3CCCC3)n2)C1` (centres undefined), the cytotoxicity at 70.5 h was -4.13%. On to `Cc1n[nH]c(C)c1CCC(=O)N(C)Cc1cn[nH]c1-c1ccc(F)cc1`, for which the cytotoxicity at 70.5 h was found to be 5.04%. Take `CCC(C)CN1CCC(n2cc(C3CCCCC3)nn2)CC1` (centres undefined): the cytotoxicity at 70.5 h was determined as 14.7%.

With `FC(F)(F)c1ccc(-n2ccnc2-c2cc3n(n2)CCNC3)cn1`, the cytotoxicity at 70.5 h worked out at 12.7%. Next, `Cc1noc(CN(C)C(=O)c2n[nH]c(N)c2-c2ccccc2)n1`: 2.44%. Turning to `Cc1nccn1-c1ccc(N2CCC(NC(C)C(C)C)CC2)cc1` (centres undefined), the cytotoxicity at 70.5 h was -2%. For the compound `Cc1cc(C(F)(F)F)cc(=O)n1CCCn1cnnn1`, the cytotoxicity at 70.5 h is -11.2%. As to `CCc1ccc(CN(C/C=C/c2ccccc2)CCOC)nc1`, the cytotoxicity at 70.5 h was -2.77%. Consider `COC[C@H]1CCC[C@H]1Nc1ncnc2c1CCNCC2`, for which the cytotoxicity at 70.5 h was -3.38%. Next, `O=C(CSCC1CC1)N1CCCN(Cc2ccc(F)cc2)CC1`: -11.1%; `CC(C)Cn1c(=O)n(CCn2cc(Cl)cn2)c2cc(C(=O)O)cnc21`: -7.3%; `CCn1cnnc1CN(C)Cc1c[nH]nc1-c1ccc(F)cc1`: -1.22%. For `CC(C)Cc1nc(CO)n(-c2ccc3c(c2)OCCO3)n1`, the cytotoxicity at 70.5 h amounted to 1.83%.

On to `CC(NC(=O)c1cc2n(n1)CCCN(C(C)C)C2)c1cn2ccsc2n1` (centres undefined), for which the cytotoxicity at 70.5 h was -16.5%. In the case of `CC(C)SCC(=O)NCc1cc2n(n1)CCCN(C1CCCCC1)C2` it was 25.3%.

For `CN(CC(=O)N1CCOCC(CO)C1)Cc1ccccn1` (centres undefined), the cytotoxicity at 70.5 h was -12.5%. Consider `CCc1nc2c(c(NC3CC3)n1)CCN(C(=O)Cc1nonc1C)CC2`, for which the cytotoxicity at 70.5 h is -8.76%. Consider `Cn1ccnc1-c1ccc(NCCC2COc3ccccc3O2)nn1` (centres undefined), for which the cytotoxicity at 70.5 h is -4.08%.

For `CSCC(=O)N1CCCC(CCC(=O)N(C)CCc2ccccn2)C1` (centres undefined), the cytotoxicity at 70.5 h amounted to 9.62%. In the case of `CCc1nnc(CN(CC)C(=O)CCc2scnc2C)o1` it was -2.72%.

As for `COc1ccc2c(c1)OCC(Cc1ccc(C)nc1N)C2` (centres undefined), the cytotoxicity at 70.5 h was 13.9%. On to `CN(Cc1ncc[nH]1)CC1CCOc2ccccc2C1` (centres undefined), for which the cytotoxicity at 70.5 h amounted to 2.48%. As to `COc1ccc(F)c(CN2CCCC(O)(CNCc3ncc[nH]3)C2=O)c1` (centres undefined), the cytotoxicity at 70.5 h was -5.99%. `c1ccc(COC2CCN(Cc3cc4n(n3)CCCNC4)CC2)nc1`: the cytotoxicity at 70.5 h was -18%. Take `CCc1oc(C(=O)NCCc2nc(C(=O)O)cs2)cc1CN1CCCC1`: the cytotoxicity at 70.5 h is -3.56%.

Take `Cc1ccc(C#N)c(N2CC(C)(C)[C@@](C)(O)C2)n1`: the cytotoxicity at 70.5 h was -6.73%. `COCCN(C)C[C@@H]1CN(C(=O)c2ccc(=O)n(C)c2)C[C@@H]1CO`: the cytotoxicity at 70.5 h was -3.56%. Regarding `O=S(=O)(NCc1ccccc1)N(Cc1ccccn1)CC1CCCO1` (centres undefined), the cytotoxicity at 70.5 h was -2.95%.

Turning to `Cc1n[nH]c(C)c1CC(=O)N1CCCN(C)C2(CCN(C)CC2)C1`, the cytotoxicity at 70.5 h stood at 23.3%. With `Cc1n[nH]c(C)c1Sc1ccccc1NC(=O)N1CCOCC1`, the cytotoxicity at 70.5 h was -2.37%.

As for `CCn1c(N)nc2cc(C(=O)N3CC(c4ccccn4)C3)cnc21`, the cytotoxicity at 70.5 h is -5.92%. `COc1cc(NCc2ccccc2-n2cncn2)nc(N)n1`: the cytotoxicity at 70.5 h is -6.05%. `CN(C)CCCn1ccc(-c2cccc(-c3cncnc3)c2)n1`: the cytotoxicity at 70.5 h was -9.25%. In the case of `Cn1cc(Cl)cc1C(=O)N1CCC2(CCCN(CC3CC3)C2=O)C1` (centres undefined) it was 24.1%. Consider `CCc1noc(CN(CC)C(=O)C2CC(=O)N(Cc3ccncc3)C2)n1` (centres undefined), for which the cytotoxicity at 70.5 h was 35.2%.

`CC(C)c1cc(N2CCC[C@H](N)C2)n2nccc2n1`: the cytotoxicity at 70.5 h was -4.66%. In the case of `Cc1ccc(C)c(OCc2cc(C(=O)N(C)Cc3cnn(C)c3)no2)c1` it was -8.7%; in that of `CC(c1ccon1)N(C)C(=O)C1CCN(C(=O)C2CCC2)CC1` (centres undefined), 25.3%. Turning to `COc1cc(C(=O)N2Cc3cnc(C(C)(C)C)nc3C2)ccn1`, the cytotoxicity at 70.5 h was -2.74%.

With `Cc1nc(N2CCOc3ccc(CO)cc3C2)c2nc(C)oc2n1`, the cytotoxicity at 70.5 h is -1.34%. Next, `O=C(NCCSc1cnn[nH]1)c1c[nH]nc1C1CCCCC1`: 1.5%; `COc1cccc(CN2CC3(CCNCC3)CCC2=O)c1OC`: 0.619%; `O=C(c1cncc(NCC2COc3ccccc3C2)n1)N1CCCC1` (centres undefined): 14.9%. With `CCn1ncnc1C1CC(=O)NCc2nc(N3CCCC3)sc21` (centres undefined), the cytotoxicity at 70.5 h is -21.6%. In the case of `Cc1ccc(OC2(C(=O)O)CCN(C(=O)c3cc(C)oc3C)CC2)cn1`, the cytotoxicity at 70.5 h amounted to 4.69%.

As for `CC(c1ccc(F)cc1)n1ccnc1-c1cc2n(n1)CCCNC2` (centres undefined), the cytotoxicity at 70.5 h is -6.66%.

For `CSCCC1c2nc[nH]c2CCN1Cc1[nH]c2ccc(F)cc2c1C` (centres undefined), the cytotoxicity at 70.5 h was 10.9%. For `CN(Cc1csc(-c2cccs2)n1)CC(O)CO` (centres undefined), the cytotoxicity at 70.5 h was found to be 18.7%.

Regarding `COCCCN1CCC(c2nc3c([nH]2)CC(C)(C)CNC3=O)C1` (centres undefined), the cytotoxicity at 70.5 h was -5.24%. As to `Cc1c(C(=O)NCC2CCN(Cc3ccco3)C2)[nH]c2ccccc12` (centres undefined), the cytotoxicity at 70.5 h was -5.18%. Regarding `CSc1ccccc1C(=O)N1C[C@H]2CC[C@@H]1CN(C(=O)C1CCC1)C2`, the cytotoxicity at 70.5 h was -4.19%.

For the compound `COc1ccc(OCc2nc(C(=O)N3CCC(NC(C)=O)C3)co2)cc1` (centres undefined), the cytotoxicity at 70.5 h was -1.19%.

For the compound `Cc1nccn1-c1ccc(NC(=O)C2CCCN2Cc2c[nH]cn2)cc1` (centres undefined), the cytotoxicity at 70.5 h amounted to 14.9%.

Turning to `O=C(NCCc1[nH]nc2c1CCCC2)C1CCCN(Cc2ccco2)C1` (centres undefined), the cytotoxicity at 70.5 h is -2.55%. On to `CN(C)C[C@@H]1CN(C(=O)CCC2CCCC2)C[C@@H]1CO`, for which the cytotoxicity at 70.5 h turned out to be 20.2%. Next, `CC(C)CN1CCc2[nH]cnc2C12CCN(C(=O)c1cc[nH]n1)CC2`: -5.86%. Turning to `Cc1ncsc1C(=O)N1CCCC(CO)(CC2CC2)C1` (centres undefined), the cytotoxicity at 70.5 h is -7.6%.

On to `Cc1ccnc(C(Nc2nccc(-c3ccc(C)nc3C)n2)C2CC2)c1` (centres undefined), for which the cytotoxicity at 70.5 h is -6.77%. `COc1cccc(OC2CN(C(=O)c3ccnc(OC)c3)C2)c1`: the cytotoxicity at 70.5 h was -21%.

For `CC(NCc1cc(O)c2cccc(F)c2n1)c1ccccc1O` (centres undefined), the cytotoxicity at 70.5 h was -10.4%. In the case of `O=C1CCC2(CCN(Cc3ccc(F)cc3Cl)CC2)CN1CCO` it was 12.9%; in that of `C[C@@H]1CN(c2cc(N3CCC(O)CC3)ncn2)C[C@@]1(O)C1CCC1`, 35.1%; in that of `Cc1cccnc1N1CCN(Cc2cc(O)c3cccc(F)c3n2)CC1`, -0.745%.

`CCN1CCC(CNc2nccc(C)n2)(N(C)C)CC1`: the cytotoxicity at 70.5 h was -3.2%. Consider `CSCCC1c2nc[nH]c2CCN1Cc1cncn1C` (centres undefined), for which the cytotoxicity at 70.5 h is 33.9%. With `CN(Cc1csc(-c2cccs2)n1)Cc1ncccc1C(=O)O`, the cytotoxicity at 70.5 h was -12.2%. As for `CN(CCCc1nccn1C)C(=O)C1COc2ccccc2C1` (centres undefined), the cytotoxicity at 70.5 h is -2.53%. With `CN(CCN1CCCCCC1)Cc1cnc(N)nc1`, the cytotoxicity at 70.5 h is -6%. Turning to `COc1ccc(Cc2ncc3c(n2)CN(C(=O)C(C)(C)OC)C3)cc1`, the cytotoxicity at 70.5 h was -6.62%.

As to `COC1CCN(c2cc(C(C)C)nc3ccnn23)C1` (centres undefined), the cytotoxicity at 70.5 h worked out at 5.73%. Consider `Cc1cc(CNC(=O)c2cn(CCC3CCCCN3)nn2)on1` (centres undefined), for which the cytotoxicity at 70.5 h was -5.72%. In the case of `COCc1ccc(C(=O)N2CCC(Oc3ccccc3)(C(=O)O)CC2)o1` it was 17.3%. On to `OCCNc1cc(N2CCC(n3cc(C4CCCC4)nn3)CC2)ncn1`, for which the cytotoxicity at 70.5 h is -10.7%. As to `Cc1c(C(=O)NCCC2CN(C)CCO2)n(C)c2c(C)cccc12` (centres undefined), the cytotoxicity at 70.5 h is -27%. Consider `NC(=O)CCN1CCc2onc(-c3ccccc3F)c2C1`, for which the cytotoxicity at 70.5 h was -11.6%.

As to `CCN(Cc1noc(C)n1)C(=O)C(c1ccc(C)cc1)N(C)C` (centres undefined), the cytotoxicity at 70.5 h is -0.785%.

With `CCSCCNC(=O)c1ccc(S(=O)(=O)N2C[C@@H]3C[C@H]2CN3)cc1`, the cytotoxicity at 70.5 h was -4.95%. On to `Cc1nc(N2CCOc3ccc(CO)cc3C2)c2c(C)noc2n1`, for which the cytotoxicity at 70.5 h was -2.39%. Turning to `CCCN1CC2(CCN(C)CC2)CC1C(=O)NCCn1cc(C)cn1` (centres undefined), the cytotoxicity at 70.5 h is -4.52%. With `CCN(C)c1ccc(C(=O)NCCCc2ccccn2)cn1`, the cytotoxicity at 70.5 h was -4.13%. For the compound `Cc1oc(-c2cccc(F)c2F)nc1CN(CCO)C(C)C`, the cytotoxicity at 70.5 h is -8.53%. Next, `c1ccc2c(c1)CCN(c1nc(-c3ccncc3)nc3c1CCNC3)C2`: 23.9%; `Cc1nc2cc(C(=O)N3C[C@@H](C(=O)O)[C@H](c4ccncc4)C3)ccc2[nH]1`: -3.63%. Consider `Cc1nc[nH]c1-c1nccn1CCCN(C)C`, for which the cytotoxicity at 70.5 h is 6.24%. In the case of `CS(=O)(=O)CC(=O)N(CCN1CCOCC1)Cc1ccco1` it was 22.7%; in that of `COc1cccc(C2CCN2C(=O)c2cnccn2)c1` (centres undefined), -2.61%.

For `CCCN1C[C@H]2CC[C@@H]1CN(Cc1ccc(-n3cccn3)cc1)C2`, the cytotoxicity at 70.5 h was 23.7%. As to `O=C(C1CNCCN1C(=O)CCc1cccnc1)N1CCOCC1` (centres undefined), the cytotoxicity at 70.5 h stood at 3.27%. Regarding `CCCNc1ncc(CN2CCC3(CC2)CNC(=O)C3)cn1`, the cytotoxicity at 70.5 h was found to be 12.6%. Take `Cc1nc(NCc2scnc2-c2ccccc2)cc(C2CCNCC2)n1`: the cytotoxicity at 70.5 h was -6.26%. As to `O=C1NCC2(CCCN(C(=O)c3ccc4c(c3)CCCO4)CC2)O1` (centres undefined), the cytotoxicity at 70.5 h is 4.55%.

Consider `CC(C)C(NC(N)=O)C(=O)N1CCN(c2ccccc2Cl)C(=O)C1` (centres undefined), for which the cytotoxicity at 70.5 h was -9.59%. On to `Cc1cccc(C(C(=O)N(C)Cc2ccon2)N(C)C)c1` (centres undefined), for which the cytotoxicity at 70.5 h was -0.0384%. With `CCc1cc(CN(C)C(=O)c2cnon2)on1`, the cytotoxicity at 70.5 h was -2.96%. For `CC(=O)c1ccn(CC(=O)Nc2nn(CC3CC3)c3ccccc23)n1`, the cytotoxicity at 70.5 h is -10.7%.

`COCCCNCc1cc(O)c2cc(C)cc(C)c2n1`: the cytotoxicity at 70.5 h was -5.24%. Take `COc1cccc(CN2CCN(CC(C)C)C(=O)C2C)c1O` (centres undefined): the cytotoxicity at 70.5 h was found to be 0.611%.
